# Results as given in US12702131B2, “Synergistic agrochemical combination” (UPL LIMITED, priority 2020, dated 2026).
# Tests used:
# Type in all cases: in vivo
# Conditions in all cases: Glufosinate 3000 ml/ha, Triacontanol 500 ml/ha
# [1] = tested on: PANRP (Brachiaria reptans); assay: Field trial, weed control in papaya orchard, PANRP
# Experimental: (§1) Field trials were carried out to test the synergy of the combination Glufosinate and Triacontanol. The field trials were carried out at Murari, A.P. The percentage efficacy was calculated after 15, 25 and 30 days of applications. The application was in the open space among the plants in a Papaya orchard and the results are recorded in the table below:—
# [2] = tested on: TRTPO (Trianthema portulacastrum); assay: Field trial, weed control in papaya orchard, TRTPO
# Experimental: as §1
# (§2) TRTPO—Trianthema portulacastrum, COMBE—Commelina benghalensis, AMASP—Amaranthus spinosus, PTNHY—Parthenium hysterophorus, 1CRGG—Corchorus, DIMRE—Dinebra retroflexa, CYNDH—Cynodon dactylon, CYPRO—Cyperus rotundus, EPHHL—Euphorbia heterophylla
# [3] = tested on: COMBE (Commelina benghalensis); assay: Field trial, weed control in papaya orchard, COMBE
# Experimental: as §1, §2
# [4] = tested on: AMASP (Amaranthus spinosus); assay: Field trial, weed control in papaya orchard, AMASP
# Experimental: as §1, §2
# [5] = tested on: PTNHY (Parthenium hysterophorus); assay: Field trial, weed control in papaya orchard, PTNHY
# Experimental: as §1, §2
# 1CRGG (Corchorus) = assay: Field trial, weed control in papaya orchard, 1CRGG
# Experimental: as §1, §2
# [6] = tested on: DIMRE (Dinebra retroflexa); assay: Field trial, weed control in papaya orchard, DIMRE
# Experimental: as §1, §2
# CYNDH (Cynodon dactylon) = assay: Field trial, weed control in papaya orchard, CYNDH
# Experimental: as §1, §2
# CYPRO (Cyperus rotundus) = assay: Field trial, weed control in papaya orchard, CYPRO
# Experimental: as §1, §2
# [7] = tested on: EPHHL (Euphorbia heterophylla); assay: Field trial, weed control in papaya orchard, EPHHL
# Experimental: as §1, §2
structure (smiles),measurement,setting,value
CP(=O)(O)CCC(N)C(=O)O (centres unmarked) [Glufosinate],% Weed control at 15 DAA,[1]; 15 DAA,85%
same,% Weed control at 25 DAA,[1]; 25 DAA,65%
same,% Weed control at 30 DAA TRTPO,[2],81%
same,% Weed control at 30 DAA COMBE,[3],47%
same,% Weed control at 30 DAA AMASP,[4],73%
same,% Weed control at 30 DAA PTNHY,[5],96%
same,% Weed control at 30 DAA 1CRGG,1CRGG (Corchorus),69%
same,% Weed control at 30 DAA DIMRE,[6],62%
same,% Weed control at 30 DAA CYNDH,CYNDH (Cynodon dactylon),54%
same,% Weed control at 30 DAA CYPRO,CYPRO (Cyperus rotundus),11%
same,% Weed control at 30 DAA EPHHL,[7],80%
